ChEMBL document CHEMBL4680113, “Tigliane Diterpenoids as a New Type of Antiadipogenic Agents Inhibit GRα-Dexras1 Axis in Adipocytes” (J Med Chem, 2019)
The source made the active and inactive calls.

Legend:
3T3-L1 [1] = assay: Lipid lowering activity in mouse 3T3-L1 cells assessed as reduction in adipogenic cocktail-induced triglyceride levels at 10 uM incubated for 6 days by GPO-POD assay; type: functional; details: 3T3-L1, 144 h, time 6 day
3T3-L1 [2] = assay: Inhibition of adipogenic cocktail-induced FAS mRNA expression in mouse 3T3-L1 cells at 1 uM after 6 days in presence of GR-alpha siRNA by RT-qPCR analysis; type: functional, cell-based; details: time 6.0 day
3T3-L1 [3] = assay: Inhibition of adipogenic cocktail-induced C/EBPbeta protein expression in mouse 3T3-L1 cells incubated for 24 hrs by Western blot analysis; type: functional, cell-based
3T3-L1 [4] = assay: Inhibition of adipogenic cocktail-induced GR-beta nuclear translocation in mouse 3T3-L1 cells at 1 uM after 8 hrs by Western blot analysis; type: cell-based
3T3-L1 [5] = assay: Inhibition of adipogenic cocktail-induced C/EBPdelta mRNA expression in mouse 3T3-L1 cells incubated for 24 hrs by RT-qPCR analysis; type: functional, cell-based
3T3-L1 [6] = assay: Inhibition of adipogenic cocktail-induced GR-alpha nuclear translocation in mouse 3T3-L1 cells at 1 uM after 8 hrs by immunofluorescence assay; type: cell-based
3T3-L1 [7] = assay: Inhibition of adipogenic cocktail-induced GR-beta protein expression in mouse 3T3-L1 cells at 1 to 10 uM incubated for 4 to 24 hrs by Western blot analysis; type: functional, cell-based; details: dose 1-10 µM, time 4-24 hrs
3T3-L1 [8] = assay: Inhibition of adipogenic cocktail-induced C/EBP-delta mRNA expression in mouse 3T3-L1 cells at 1 to 10 uM incubated for 0.5 hrs by RT-qPCR analysis; type: functional, cell-based; details: dose 1-10 µM
3T3-L1 [9] = assay: Inhibition of adipogenic cocktail-induced C/EBPdelta protein expression in mouse 3T3-L1 cells incubated for 24 hrs by Western blot analysis; type: functional, cell-based
3T3-L1 [10] = assay: Inhibition of cell differentiation in mouse 3T3-L1 cells assessed as reduction in adipogenic cocktail-induced triglyceride levels at 1 uM incubated for 0 to 3 days by Oil-Red O staining; type: functional, cell-based; details: time 0-3 day
3T3-L1 [11] = assay: Inhibition of adipogenic cocktail-induced C/EBP-alpha mRNA expression in mouse 3T3-L1 cells at 1 uM after 1 day in presence of GR-alpha siRNA by RT-qPCR analysis; type: functional, cell-based
3T3-L1 [12] = assay: Inhibition of adipogenic cocktail-induced C/EBP-beta protein expression in mouse 3T3-L1 cells at 1 to 10 uM incubated for 0.5 hrs by Western blot analysis; type: functional, cell-based; details: dose 1-10 µM
3T3-L1 [13] = assay: Inhibition of GR-alpha in mouse 3T3-L1 cells assessed as reduction in adipogenic cocktail-induced Dexras1 mRNA expression at 1 uM incubated for 4 hrs by RT-qPCR analysis; type: cell-based
3T3-L1 [14] = assay: Inhibition of methylprednisolone-induced PPARgamma mRNA expression in mouse 3T3-L1 cells at 1 uM by RT-qPCR analysis; type: functional, cell-based
3T3-L1 [15] = assay: Lipid lowering activity in mouse 3T3-L1 cells assessed as reduction in methylprednisolone-induced triglyceride levels at 1 uM incubated for 6 days by GPO-POD assay; type: functional, cell-based; details: time 6.0 day
3T3-L1 [16] = assay: Inhibition of GR-alpha in mouse 3T3-L1 cells assessed as reduction in methylprednisolone-induced Dexras1 mRNA expression at 1 uM incubated for 4 hrs by RT-qPCR analysis; type: cell-based
HepG2 = assay: Lipid lowering activity in human HepG2 cells assessed as reduction in high-glucose induced triglyceride levels at 1 uM incubated for 6 days in presence of Dexras1 siRNA by GPO-POD assay; type: functional, cell-based; details: time 6.0 day

CC1=C[C@@H]2[C@@H](C1=O)[C@H](O)C(C)=C[C@H]1[C@@H]3C(C)(C)[C@]3(OC(=O)C(C)C)[C@H](OC(=O)c3ccccc3)[C@@H](C)[C@]21O
active: inhibition (3T3-L1 [2]) | inhibition (3T3-L1 [3]) Dose-dependent effect | inhibition (3T3-L1 [5]) Dose-dependent effect | inhibition (3T3-L1 [6]) | inhibition (3T3-L1 [9]) Dose-dependent effect | inhibition (3T3-L1 [10]) | inhibition (3T3-L1 [11])
inactive: inhibition (3T3-L1 [4]) | inhibition (3T3-L1 [7]) | inhibition (3T3-L1 [8]) | inhibition (3T3-L1 [12])
> 50%: inhibition at 10 µM (3T3-L1 [1])

CC(=O)O[C@@H]1C(C)=C[C@H]2[C@@H]3C(C)(C)[C@]3(OC(=O)C(C)C)[C@H](OC(=O)c3ccccc3)[C@@H](C)[C@]2(O)[C@@H]2C=C(C)C(=O)[C@@H]12
active: inhibition (3T3-L1 [2]) | inhibition (3T3-L1 [3]) Dose-dependent effect | inhibition (3T3-L1 [5]) Dose-dependent effect | inhibition (3T3-L1 [6]) | inhibition (3T3-L1 [9]) Dose-dependent effect | inhibition (3T3-L1 [10]) | inhibition (3T3-L1 [13]) | inhibition (3T3-L1 [14]) | inhibition (3T3-L1 [15]) | inhibition (3T3-L1 [11]) | inhibition (3T3-L1 [16]) | inhibition (HepG2)
inactive: inhibition (3T3-L1 [4]) | inhibition (3T3-L1 [7]) | inhibition (3T3-L1 [8]) | inhibition (3T3-L1 [12])
> 50%: inhibition at 10 µM (3T3-L1 [1])
